Experimental data taken from patent US20230002346A1, “NEW COMPOUNDS AND METHODS” (BenevolentAl Bio Limited, priority 2019, published 2023).
In brackets after ≈: the same amount, converted by molar mass.

Key:
hERG channel = biological target: T1, hERG channel (Homo sapiens, UniProt Q12809); assay: hERG assay (QPatch automated patch clamp, CHO cells); type: cell-based; conditions: CHO cells expressing hERG, whole-cell patch clamp, 0.003 μM to 10 μM
T1 construct: expressed in transfected cells
Excerpt: The human ether-a-go-go related gene (hERG) potassium channel (Kv11.1) contributes to human cardiac action potential repolarisation. Inhibition of hERG channels can prolong the human cardiac action potential, resulting in QTc prolongation and potentially lethal arrhythmias (e.g. Torsade de Pointes).
Test samples were screened against the hERG channel on a QPatch 48 gigaseal automated patch clamp platform, using a Chinese Hamster Ovary (CHO) cell line stably expressing the human ether-á-go-go related gene, which encodes the hERG channel. All recordings were made in the conventional whole-cell configuration and performed at RT ([…]) using standard single hole chips (Rchip 1.5-4M0). Series resistance (4-15Mc) was compensated by >80%. Currents were elicited from a holding potential of −90 mV using the industry standard “^+40/−40” voltage protocol, which was applied at a stimulus frequency of 0.1 Hz. On achieving the whole-cell configuration, vehicle (0.1% DMSO v/v in external recording solution) was applied to each cell in two bolus additions with a 2 min recording period between each addition. Following the vehicle period, eight increasing concentrations of test sample were applied from 0.003 μM to 10 μM as a single bolus addition per test concentration, and the effects on hERG tail current amplitude measured during the 2 min recording period. Each eight-point concentration-response curve was constructed using cumulative single sample additions of each concentration to the same cell. The positive control used in this study was verapamil hydrochloride (Tocris, Cat #0654, Batch #5A/61673) and prepared to a stock concentration of 10 mM in 100% DMSO and kept as frozen aliquots.
Data analysis: All cells passing the QC parameters (i.e. >200 pA outward current, membrane resistance and rundown) are selected as ‘passed QC’ using the QPatch software, which then calculates the mean peak current for the last three sweeps at the end of each concentration application period from the cursor positions defined. Percent inhibition is calculated for each test concentration application period as the reduction in mean cursor value (peak current or charge) relative to the cursor value measured at the end of the control (i.e. vehicle) period. The percent inhibition values from each cell are used to construct concentration-response curves employing a four parametric logistic fit with 0 and 100% inhibition levels fixed at very low and very high concentrations, respectively, and a free Hill slope factor. The IC50 (50% inhibitory concentration) and Hill coefficient are then determined, but only data from cells with Hill slopes within 0.5>nH<2.0 are included. The IC50 data reported below represents the mean (and S.D.) of at least three separate cells (N≥3). […] Compounds of the invention show reduced hERG inhibitory activity compared to the reference examples.

[1] = test system: Salmonella typhimurium, strains TA98 and TA100; assay: Ames assay (Bacterial Reverse Mutation Test); type: cell-based; conditions: TA98 and TA100, presence and absence of S-9 mix, up to 5000 μg/plate
Procedure: Examples 50, 52 and 54 were tested, in vitro, for their ability to induce mutations in 2 histidine dependent auxotrophic mutants of Salmonella typhimurium, strains TA98 and TA100. The mutation screen was conducted using the plate incorporation method and was performed in both the presence and absence of S-9 mix (a liver post-mitochondrial fraction derived from the livers of Aroclor 1254 treated rats). The bacteria were exposed to the test items dissolved in DMSO, which was also the negative Control. The test items were tested up to the regulatory maximum dose level. The dose levels used were 5, 15, 50, 150, 500, 1500 or 5000 μg/plate, unless the highest treatment level of the test items was limited by solubility, or toxicity against the background bacterial lawn. Dose levels were expressed in terms of the free base.
There were no increases of 2-fold or greater in revertant numbers compared with negative Control values in either strain at any dose level in the presence or absence of S-9 mix, so Examples 50, 52 and 54 were not mutagenic in the Bacterial Reverse Mutation (i.e. Ames) Test under the conditions of this screen.

[2] = test system: 87 targets across GPCRs, ion channels, and enzymes; assay: Eurofins SafetyScreen panel; conditions: top concentration of 10 μM
Excerpt: Example 50 was screened against the Eurofins SafetyScreen™ panel of 87 targets across GPCRs, ion channels, and enzymes.

[3] = Kinetic aqueous solubility assay; type: physicochemical; conditions: aqueous buffer, kinetic from dmso stock, 0.05M potassium phosphate buffer pH 7.4, 250 μM spike, RT
Procedure: Using a 10 mM stock solution of test compound in 100% DMSO, test compounds were spiked into 0.05M potassium phosphate buffer (pH 7.4) at a final concentration of 250 μM. Samples in buffer (n=2 aqueous samples, in 96-well plates) were allowed to equilibrate at RT on an orbital shaker for 30 min (300 rpm) to induce precipitation of test compounds. The appearance of each sample was determined by visual examination and noted (clear, cloudy, precipitate observed etc.). […] The concentration of compound in phosphate buffer filtrate was determined by comparing the UV absorbance peak area of each replicate against that of the calibration standards. […] Compounds of the invention have much improved solubility compared to the reference examples.

[4] = Brain to plasma (B:P) ratio in rat; type: in vivo, Sprague Dawley Rats; conditions: male, Sprague Dawley, iv, i.v. 1.5 mg/kg, 3.3% NMP in 30% HPBC in water, timepoints averaged 0.5-1 h
[5] = Brain to plasma (B:P) ratio in rat; type: in vivo, Sprague Dawley Rats; conditions: male, Sprague Dawley, po, p.o. 3.0 mg/kg
Procedure: Male Sprague Dawley Rats 300-350 g (Charles River, UK) were group housed, n=3, under a 12 h light/dark cycle with food and water available ad libitum. At 17:00 on the day prior to dosing all food was removed. On the day of dosing animals were weighed, tail marked and dosed via oral gavage with compound at 3 mg/kg in a volume of 5 mL/kg. Animals were culled at 30 min, 1 h and 4 h post dose via intra-peritoneal administration of pentobarbital. Post mortem blood was withdrawn via cardiac puncture, and briefly stored in K2 EDTA blood tubes on ice before being spun at 14,000 g for 4 min at 4° C. Plasma was withdrawn into a 96 well plate, placed on dry ice and stored at −80° C. Brains were quickly dissected and placed on dry ice before storage at −80° C. Bioanalysis of plasma and brain samples is performed as detailed below. Methods were prepared with guidance from industry standard documents.^i,ii […] Calibration lines are prepared in control male Sprague-Dawley Rat plasma at known concentrations in the range of 1-10000 ng/mL by spiking 2.5 μL of calibration spiking solution into 25 μL control plasma. Experimental samples are thawed to RT and 25 μL aliquots are extracted alongside the calibration lines using protein precipitation (agitation for at least 5 min at RT with 400 μL of MeCN containing 25 ng/mL tolbutamide as an internal standard). Protein precipitates are separated from the extracted test compound by centrifugation at 4000 rpm for 5 min, 4° C. […] Samples are analysed by UPLC-MS/MS on either an API6500 QTrap or Waters 30 TQS mass spectrometer using previously optimised analytical MRM (multiple reaction monitoring) methods, specific to the test compound. The concentration of test compound in isolated samples is determined following analysis of the samples against the two replicates of the calibration line, injected before and after the sample set with an appropriate regression and weighting used. Only samples within 20% of the expected test concentration are included in the calibration line and any samples that fall outside of the limits of the calibration line will be deemed to be less than or above the limit of quantification (LLoQ/ALoQ). […] Calibration lines are prepared in control male Sprague-Dawley Rat brain homogenate at known concentrations in the range of 3-30000 ng/g by spiking 2.5 μL of calibration spiking solution into 25 μL control homogenate. To prepare control and experimental brain homogenates, brains are thawed, weighed and a volume of diluent added (water) in the ratio of 2 mL per gram of brain. Homogenisation of brains is performed by bead-beater homogenisation using Precellys Evolution and CK14 7 mL small ceramic bead homogenisation tubes. Aliquots of 25 μL experimental sample are extracted alongside the calibration lines using protein precipitation (agitation for at least 5 min at RT with 400 μL of MeCN containing 25 ng/mL tolbutamide as an internal standard). Protein precipitates are separated from the extracted test compound by centrifugation at 4000 rpm for 5 min, 4° C. […] Samples are analysed by UPLC-MS/MS on either an API6500 QTrap or Waters TQS mass spectrometer using previously optimised analytical MRM (multiple reaction monitoring) methods, specific to the test compound. The concentration of test compound in isolated samples is determined following analysis of the samples against the two replicates of the calibration line, injected before and after the sample set with an appropriate regression and weighting used. Only samples within 20% of the expected test concentration are included in the calibration line and any samples that fall outside of the limits of the calibration line will be deemed to be less than or above the limit of quantification (LLoQ/ALoQ). Total brain to plasma (B:P) ratios were calculated by dividing the concentration in the brain by the concentration in plasma for each timepoint. The mean brain to plasma ratio is calculated by averaging these brain to plasma ratios across certain timepoints. […]

[6] = biological target: T2, Ba/F3 cells expressing BCR-ABL (Homo sapiens, UniProt P00519); assay: Ba/F3 CellTiter-Glo Assay; type: cell-based; conditions: 48 h
T2 construct: BCR (fusion partner); host or cells: Ba/F3 (IL-3 dependent murine pro-B cells); the other entry of the earlier key: BCR (P11274, Breakpoint cluster region protein)
Procedure: The CellTiter-Glo luminescent cell viability assay is a homogeneous method of determining the number of viable cells in culture based on quantification of the ATP present. Briefly, IL-3 dependent Ba/F3 cells are modified to express BCR-ABL. Activity of the transformed kinase overrides IL3 dependency for cellular proliferation and survival. […] Test compounds were dispensed into 384 well plates using the Tecan D300e at a top final assay concentration of 10 μM with dosing normalised to 0.1% DMSO in 50 μL volume. […] Following a 60 min incubation at RT luminescence was read on the Pherastar FS reader.

[7] = 30% HPBC in water, timepoints averaged 0.5-4 h

T1 sequence (Q12809 whole entry): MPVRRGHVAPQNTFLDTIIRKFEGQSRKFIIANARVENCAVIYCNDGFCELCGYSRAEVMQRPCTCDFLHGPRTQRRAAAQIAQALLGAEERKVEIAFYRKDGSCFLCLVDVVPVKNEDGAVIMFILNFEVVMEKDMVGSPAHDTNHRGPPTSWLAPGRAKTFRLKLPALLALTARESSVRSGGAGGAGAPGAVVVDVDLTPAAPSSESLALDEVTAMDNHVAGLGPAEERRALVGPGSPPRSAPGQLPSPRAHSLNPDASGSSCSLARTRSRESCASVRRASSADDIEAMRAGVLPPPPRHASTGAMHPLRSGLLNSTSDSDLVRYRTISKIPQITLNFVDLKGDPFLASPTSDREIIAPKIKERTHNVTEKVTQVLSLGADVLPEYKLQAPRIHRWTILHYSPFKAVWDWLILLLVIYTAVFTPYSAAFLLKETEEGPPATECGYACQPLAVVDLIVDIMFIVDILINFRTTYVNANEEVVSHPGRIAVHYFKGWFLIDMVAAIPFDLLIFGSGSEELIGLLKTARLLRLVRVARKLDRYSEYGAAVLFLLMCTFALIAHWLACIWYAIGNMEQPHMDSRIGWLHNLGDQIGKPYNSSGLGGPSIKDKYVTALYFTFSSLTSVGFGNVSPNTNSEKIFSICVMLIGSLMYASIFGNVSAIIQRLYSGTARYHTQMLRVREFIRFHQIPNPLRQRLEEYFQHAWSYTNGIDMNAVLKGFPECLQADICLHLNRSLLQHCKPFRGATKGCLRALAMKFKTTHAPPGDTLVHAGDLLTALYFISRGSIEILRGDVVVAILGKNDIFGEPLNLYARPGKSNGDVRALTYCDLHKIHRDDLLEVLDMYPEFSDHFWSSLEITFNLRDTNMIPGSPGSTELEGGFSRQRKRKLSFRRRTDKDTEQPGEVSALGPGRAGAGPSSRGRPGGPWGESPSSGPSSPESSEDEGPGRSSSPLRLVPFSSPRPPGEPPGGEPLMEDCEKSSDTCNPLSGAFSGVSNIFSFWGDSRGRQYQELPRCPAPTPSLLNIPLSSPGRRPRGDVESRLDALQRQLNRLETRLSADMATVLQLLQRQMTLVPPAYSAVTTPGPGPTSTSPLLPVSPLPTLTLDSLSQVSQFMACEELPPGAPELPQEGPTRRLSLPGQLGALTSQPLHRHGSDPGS
T2 sequence (P00519 28-1130 limits assumed): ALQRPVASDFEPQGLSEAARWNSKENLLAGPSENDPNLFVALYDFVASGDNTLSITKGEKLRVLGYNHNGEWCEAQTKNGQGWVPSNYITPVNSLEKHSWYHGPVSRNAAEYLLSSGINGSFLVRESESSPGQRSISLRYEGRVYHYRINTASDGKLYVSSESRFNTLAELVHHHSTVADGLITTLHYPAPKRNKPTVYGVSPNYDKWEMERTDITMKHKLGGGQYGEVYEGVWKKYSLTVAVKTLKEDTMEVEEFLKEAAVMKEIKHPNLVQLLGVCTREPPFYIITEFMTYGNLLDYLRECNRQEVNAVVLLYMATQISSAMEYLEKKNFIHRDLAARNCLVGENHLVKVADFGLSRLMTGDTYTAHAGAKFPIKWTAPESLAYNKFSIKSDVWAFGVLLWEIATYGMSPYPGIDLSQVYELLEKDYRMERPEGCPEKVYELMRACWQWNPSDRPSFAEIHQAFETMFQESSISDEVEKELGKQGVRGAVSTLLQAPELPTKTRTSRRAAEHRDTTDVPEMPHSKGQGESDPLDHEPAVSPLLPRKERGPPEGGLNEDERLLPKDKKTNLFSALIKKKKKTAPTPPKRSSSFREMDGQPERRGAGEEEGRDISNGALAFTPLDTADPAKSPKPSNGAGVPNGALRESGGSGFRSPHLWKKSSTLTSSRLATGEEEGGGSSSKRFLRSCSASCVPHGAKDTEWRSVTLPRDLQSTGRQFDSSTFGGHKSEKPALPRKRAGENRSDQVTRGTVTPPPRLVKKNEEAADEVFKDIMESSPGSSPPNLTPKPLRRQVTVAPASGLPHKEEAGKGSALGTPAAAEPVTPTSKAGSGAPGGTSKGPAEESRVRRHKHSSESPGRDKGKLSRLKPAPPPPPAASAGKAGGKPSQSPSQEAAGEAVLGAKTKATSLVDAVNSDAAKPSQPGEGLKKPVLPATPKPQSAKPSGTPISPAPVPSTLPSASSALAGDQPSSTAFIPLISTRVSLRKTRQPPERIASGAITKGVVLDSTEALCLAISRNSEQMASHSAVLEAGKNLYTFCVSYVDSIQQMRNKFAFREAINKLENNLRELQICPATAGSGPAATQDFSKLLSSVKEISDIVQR

Row | SMILES | IC50 (hERG channel) | solubility at 30 min [3] | further results
1 | O=C(Nc1ccc(OC(F)(F)F)cc1)c1ccc(=O)n(-c2cncnc2)c1 [Example 50, 6-Oxo-1-(pyrimidin-5-yl)-N-[4-(trifluoromethoxy)phenyl]-1.6-dihydropyridine-3-carboxamide] | > 10 µM |  | mutagenicity in the Bacterial Reverse Mutation (Ames) Test [1]: not mutagenic; number of 87 targets inhibited >50% [2]: 2; maximum inhibition ([2]; 87 targets): 65%
2 | O=C(Nc1ccc(OC(F)(F)Cl)cc1)c1ccc(=O)n(-c2cncnc2)c1 [Example 51, N-[4-(Chlorodifluoromethoxy)phenyl]-6-oxo-1-(pyrimidin-5-yl)-1,6-dihydropyridine-3-carboxamide] | > 10 µM | 190 µM (≈ 74.6 µg/mL) | Kp [4]: 0.67
3 | Cn1cc(-n2cc(C(=O)Nc3ccc(OC(F)(F)Cl)cc3)ccc2=O)cn1 [Example 52, N-[4-[Chloro(difluoro)methoxy]phenyl]-1-(1-methylpyrazol-4-yl)-6-oxo-pyridine-3-carboxamide] | > 10 µM | 160 µM (≈ 63.2 µg/mL) | mutagenicity in the Bacterial Reverse Mutation (Ames) Test [1]: not mutagenic
4 | O=C(Nc1ccc(OC(F)(F)Cl)cc1)c1ccc(=O)n(-c2cccnc2)c1 [Example 53, N-[4-[Chloro(difluoro)methoxy]phenyl]-6-oxo-1-(3-pyridyl)pyridine-3-carboxamide] | > 10 µM | 170 µM (≈ 66.6 µg/mL) | Kp ([5]; 5% NMP in 30% HPBC in water, timepoints averaged 0.5-1 h): 0.82
5 | COc1cncc(-n2cc(C(=O)Nc3ccc(OC(F)(F)Cl)cc3)ccc2=O)c1 [Example 61, N-[4-[Chloro(difluoro)methoxy]phenyl]-1-(5-methoxy-3-pyridyl)-6-oxo-pyridine-3-carboxamide] | > 10 µM | 160 µM (≈ 67.5 µg/mL) | Kp [5, 7]: 0.45
6 | O=C(Nc1ccc(OC(F)(F)Cl)cc1)c1ccc(=O)n(-c2cncc(Cl)c2)c1 [Example 63, N-[4-[Chloro(difluoro)methoxy]phenyl]-1-(5-chloro-3-pyridyl)-6-oxo-pyridine-3-carboxamide] | > 10 µM | 120 µM (≈ 51.1 µg/mL) | Kp [5, 7]: 0.64
7 | O=C(Nc1ccc(OC(F)(F)Cl)cc1)c1ccc(=O)n(-c2ccc[n+]([O-])c2)c1 [Example 78, 5-{[4-(Chlorodifluoromethoxy)phenyl]carbamoyl}-2-oxo-2H-[1.3′-bipyridin]-1′-ium-1′-olate] |  | 150 µM (≈ 61.2 µg/mL) | IC50 [6]: 0.151 to 1 µM
8 | Cn1cc(-n2cc(C(=O)Nc3ccc(OC(F)(F)Cl)cc3)cc(C#N)c2=O)cn1 [Example 79, N-[4-(Chlorodifluoromethoxy)phenyl]-5-cyano-1-(1-methyl-1H-pyrazol-4-yl)-6-oxo-1.6-dihydropyridine-3-carboxamide] |  |  | IC50 [6]: 0.151 to 1 µM
